Results reported in US20240269139A1, “COMPOUNDS FOR TARGETED PROTEIN DEGRADATION OF KINASES” (DANA-FARBER CANCER INSTITUTE, INC., priority 2020, published 2024).
Where two headings read alike, the source gives them in different places.

How the values were obtained:
Assay type in all cases: cell-based
[1] = molecular target: protein kinases (human kinome) (Homo sapiens, UniProt Q14289); conditions: for logFC: PTK2B (Q14289-1) protein abundance, degrader vs DMSO, down
[2] = molecular target: T1, protein kinases (human kinome) (Homo sapiens, UniProt Q969Z0); conditions: Accession Q969Z0-1, direction down
T1 sequence (Q969Z0 108-631): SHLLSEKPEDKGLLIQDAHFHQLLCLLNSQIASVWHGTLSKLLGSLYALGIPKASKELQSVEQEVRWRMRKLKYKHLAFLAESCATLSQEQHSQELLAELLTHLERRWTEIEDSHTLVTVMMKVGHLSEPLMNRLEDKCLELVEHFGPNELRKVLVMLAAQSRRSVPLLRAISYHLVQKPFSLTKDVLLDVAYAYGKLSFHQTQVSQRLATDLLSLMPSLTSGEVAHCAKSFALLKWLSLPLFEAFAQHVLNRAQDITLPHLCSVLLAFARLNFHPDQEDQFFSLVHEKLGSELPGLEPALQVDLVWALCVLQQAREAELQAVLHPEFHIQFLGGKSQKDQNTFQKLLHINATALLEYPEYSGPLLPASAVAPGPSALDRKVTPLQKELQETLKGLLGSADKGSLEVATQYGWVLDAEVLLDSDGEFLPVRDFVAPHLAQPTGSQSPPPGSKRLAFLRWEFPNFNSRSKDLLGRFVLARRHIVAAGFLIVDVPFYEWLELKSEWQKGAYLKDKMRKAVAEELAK

[3] = molecular target: T2, protein kinases (human kinome) (Homo sapiens, UniProt Q14CZ7); conditions: Accession Q14CZ7, direction down
T2 sequence (Q14CZ7 1-662): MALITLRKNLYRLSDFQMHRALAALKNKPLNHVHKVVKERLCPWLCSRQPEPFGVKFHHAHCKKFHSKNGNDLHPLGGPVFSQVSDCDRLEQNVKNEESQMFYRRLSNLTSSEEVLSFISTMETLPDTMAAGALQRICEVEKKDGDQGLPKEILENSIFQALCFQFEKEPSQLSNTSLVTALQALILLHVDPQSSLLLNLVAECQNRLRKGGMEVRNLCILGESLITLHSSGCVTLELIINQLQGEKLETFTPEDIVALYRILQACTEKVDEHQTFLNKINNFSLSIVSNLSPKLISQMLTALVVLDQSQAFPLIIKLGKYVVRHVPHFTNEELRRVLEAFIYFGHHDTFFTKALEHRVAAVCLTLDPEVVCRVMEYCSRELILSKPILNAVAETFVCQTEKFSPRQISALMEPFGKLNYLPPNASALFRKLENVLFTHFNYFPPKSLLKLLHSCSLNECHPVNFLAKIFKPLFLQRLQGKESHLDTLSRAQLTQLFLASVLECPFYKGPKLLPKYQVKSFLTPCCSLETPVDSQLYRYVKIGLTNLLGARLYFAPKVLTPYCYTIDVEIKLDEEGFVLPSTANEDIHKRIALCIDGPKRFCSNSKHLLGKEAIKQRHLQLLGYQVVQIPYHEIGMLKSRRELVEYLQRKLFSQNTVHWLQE

[4] = molecular target: T3, protein kinases (human kinome) (Homo sapiens, UniProt P33981); conditions: for logFC TTK: Accession P33981
T3 sequence (P33981 1-857): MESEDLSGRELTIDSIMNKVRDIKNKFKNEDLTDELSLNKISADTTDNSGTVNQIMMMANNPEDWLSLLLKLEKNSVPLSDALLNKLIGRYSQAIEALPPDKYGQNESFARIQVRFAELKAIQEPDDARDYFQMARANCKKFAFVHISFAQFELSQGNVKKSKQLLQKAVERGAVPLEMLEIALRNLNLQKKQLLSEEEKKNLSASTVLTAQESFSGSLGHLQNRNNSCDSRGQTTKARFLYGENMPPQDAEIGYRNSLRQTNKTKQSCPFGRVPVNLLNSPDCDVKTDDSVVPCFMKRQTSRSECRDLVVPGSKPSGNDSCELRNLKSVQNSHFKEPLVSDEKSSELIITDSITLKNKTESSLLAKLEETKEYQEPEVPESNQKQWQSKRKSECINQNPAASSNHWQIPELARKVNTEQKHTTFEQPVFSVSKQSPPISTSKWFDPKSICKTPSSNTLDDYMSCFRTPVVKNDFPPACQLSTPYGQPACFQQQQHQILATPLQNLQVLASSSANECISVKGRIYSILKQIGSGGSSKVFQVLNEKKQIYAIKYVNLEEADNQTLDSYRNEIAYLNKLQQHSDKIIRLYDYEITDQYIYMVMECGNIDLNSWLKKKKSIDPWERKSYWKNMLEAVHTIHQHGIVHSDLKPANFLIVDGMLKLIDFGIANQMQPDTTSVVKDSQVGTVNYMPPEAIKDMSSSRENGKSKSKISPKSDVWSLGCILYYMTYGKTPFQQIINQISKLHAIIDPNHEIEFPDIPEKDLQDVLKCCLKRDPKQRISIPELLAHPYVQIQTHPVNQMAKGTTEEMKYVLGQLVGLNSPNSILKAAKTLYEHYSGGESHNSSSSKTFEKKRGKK

[5] = molecular target: protein kinases (human kinome) (Homo sapiens, UniProt P41240); conditions: for logFC of CSK: Accession P41240; for logFC CSK: CSK (P41240), down
Chain of protein kinases (human kinome) (Homo sapiens, UniProt P41240) (P41240 whole entry): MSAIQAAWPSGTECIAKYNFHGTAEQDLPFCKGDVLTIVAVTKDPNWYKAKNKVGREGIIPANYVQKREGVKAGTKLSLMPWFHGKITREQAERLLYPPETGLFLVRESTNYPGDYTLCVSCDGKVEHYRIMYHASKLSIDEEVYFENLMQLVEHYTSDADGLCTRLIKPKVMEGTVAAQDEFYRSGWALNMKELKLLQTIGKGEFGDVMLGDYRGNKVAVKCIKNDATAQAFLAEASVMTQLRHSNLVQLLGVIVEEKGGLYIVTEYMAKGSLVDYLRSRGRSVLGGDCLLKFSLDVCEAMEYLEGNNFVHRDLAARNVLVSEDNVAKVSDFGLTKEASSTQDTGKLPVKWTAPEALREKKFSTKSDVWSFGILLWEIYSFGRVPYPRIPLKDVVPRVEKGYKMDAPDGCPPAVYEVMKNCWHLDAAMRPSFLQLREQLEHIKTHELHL

Chain of protein kinases (human kinome) (Homo sapiens, UniProt Q14289) (Q14289 whole entry): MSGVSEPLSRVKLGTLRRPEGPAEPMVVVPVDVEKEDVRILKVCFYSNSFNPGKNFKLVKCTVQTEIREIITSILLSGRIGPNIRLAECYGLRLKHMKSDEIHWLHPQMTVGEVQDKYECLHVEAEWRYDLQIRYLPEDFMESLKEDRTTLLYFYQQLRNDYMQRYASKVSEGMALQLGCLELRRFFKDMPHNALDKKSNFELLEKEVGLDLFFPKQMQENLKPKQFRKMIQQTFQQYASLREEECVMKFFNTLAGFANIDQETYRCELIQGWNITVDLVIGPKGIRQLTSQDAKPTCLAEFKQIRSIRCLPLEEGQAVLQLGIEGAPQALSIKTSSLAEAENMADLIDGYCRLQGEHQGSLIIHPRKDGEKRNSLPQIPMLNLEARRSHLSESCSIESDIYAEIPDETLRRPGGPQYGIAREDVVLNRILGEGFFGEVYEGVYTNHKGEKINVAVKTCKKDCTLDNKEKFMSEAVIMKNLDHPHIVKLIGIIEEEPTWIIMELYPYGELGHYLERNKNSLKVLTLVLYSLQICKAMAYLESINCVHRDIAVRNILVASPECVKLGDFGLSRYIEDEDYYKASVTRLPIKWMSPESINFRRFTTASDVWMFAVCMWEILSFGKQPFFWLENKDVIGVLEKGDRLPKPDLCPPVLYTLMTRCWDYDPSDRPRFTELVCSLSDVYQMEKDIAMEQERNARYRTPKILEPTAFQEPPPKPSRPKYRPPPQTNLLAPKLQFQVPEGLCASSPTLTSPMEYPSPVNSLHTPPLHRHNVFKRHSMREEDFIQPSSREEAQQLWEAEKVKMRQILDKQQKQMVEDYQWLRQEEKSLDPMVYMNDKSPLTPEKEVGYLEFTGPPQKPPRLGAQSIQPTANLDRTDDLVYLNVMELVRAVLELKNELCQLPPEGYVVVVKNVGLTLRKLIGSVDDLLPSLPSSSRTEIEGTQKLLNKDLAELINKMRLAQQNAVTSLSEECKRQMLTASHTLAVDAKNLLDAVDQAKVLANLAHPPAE

## CNC(=O)c1ccccc1Nc1cc(Nc2ccc(N3CCN(CCOCCOCCNC(=O)CNc4cccc5c4C(=O)N(C4CCC(=O)NC4=O)C5=O)CC3)cc2OC)ncc1C(F)(F)F (centres unmarked) [MFH.5.103.1]
[1]
  logFC: −3.18
[1]; accession Q14289-1, experiment wp076, direction of change down
  logFC PTK2B: −3.18
[2]; experiment wp076
  logFC TBRG4: −0.3858

## O=C(COc1cccc2c1C(=O)N(C1CCC(=O)NC1=O)C2=O)NCCCCCCCC(=O)NC1(c2ccc(-c3nc4ccn5c(=O)[nH]nc5c4cc3-c3ccccc3)cc2)CCC1 (centres unmarked) [INY.01.140.1]
[3]; experiment wp081
  logFC FASTKD3: −0.3846
[2]; experiment wp081
  logFC TBRG4: −0.4208

## Cc1ccc(NC(=O)c2cccc(C(F)(F)F)c2)cc1N1Cc2cnc(Nc3ccc(N4CCN(Cc5cn(CCCCCOc6cccc7c6C(=O)N(C6CCC(=O)NC6=O)C7=O)nn5)CC4)nc3)nc2N(C)C1=O (centres unmarked) [DB0646, N-(3-(7-((6-(4-((1-(5-((2-(2,6-Dioxopiperidin-3-yl)-1,3-dioxoisoindolin-4-yl)oxy)pentyl)-1H-1,2,3-triazol-4-yl)methyl)piperazin-1-v)pyridin-3-yl)amino)-1-methyl-2-oxo-1,4-dihydropyrimido[4,5-d]pyrimidin-3(2H)-yl)-4-methylphenyl)-3-(trifluoromethyl)benzamide]
[4]; experiment wp045
  logFC TTK: −0.5757
  logFC TTK (P33981): −0.5757
[4]; experiment wp107
  logFC TTK: −0.372
  logFC TTK (P33981): −0.372
[4]; experiment wp117
  logFC TTK: −0.4267
  logFC TTK (P33981): −0.4267
[4]; experiment wp152
  logFC TTK: −0.5131
  logFC TTK (P33981): −0.5131
[4]; experiment wp160, 4 hr
  logFC TTK: −0.513
  logFC TTK (P33981): −0.513
[4]; experiment wp160, 8 hr
  logFC TTK: −0.7057
  logFC TTK (P33981): −0.7057
[5]; experiment wp045
  logFC of CSK: −1.542
  logFC CSK: −1.542
[5]; experiment wp103
  logFC of CSK: −1.282
  logFC CSK: −1.282
[5]; experiment wp105
  logFC of CSK: −0.6868
  logFC CSK: −0.6868
[5]; experiment wp107
  logFC of CSK: −1.311
  logFC CSK: −1.311
[5]; experiment wp114
  logFC of CSK: −0.6932
  logFC CSK: −0.6932
[5]; experiment wp117
  logFC of CSK: −1.414
  logFC CSK: −1.414
[5]; experiment wp152
  logFC of CSK: −1.513
  logFC CSK: −1.513
[5]; experiment wp160, 2 hr
  logFC of CSK: −0.8308
  logFC CSK: −0.8308
[5]; experiment wp160, 4 hr
  logFC of CSK: −1.416
  logFC CSK: −1.416
[5]; experiment wp160, 8 hr
  logFC of CSK: −1.753
  logFC CSK: −1.753
[5]; experiment wp172
  logFC of CSK: −0.8538
  logFC CSK: −0.8538
[1]; Experiment wp152, direction of change down
  logFC PTK2B (Q14289): −2.998
[1]; 1 hr
  logFC: −0.3955
[1]; 2 hr
  logFC: −1.235
[1]; 4 hr
  logFC: −2.341
[1]; 8 hr
  logFC: −2.599
[1]; accession Q14289-1, experiment wp045, direction of change down
  logFC PTK2B: −2.774
[1]; accession Q14289-1, experiment wp114, direction of change down
  logFC PTK2B: −1.358
[1]; accession Q14289-1, experiment wp160, 1 hr, direction of change down
  logFC PTK2B: −0.3955
[1]; accession Q14289-1, experiment wp160, 2 hr, direction of change down
  logFC PTK2B: −1.235
[1]; accession Q14289-1, experiment wp160, 4 hr, direction of change down
  logFC PTK2B: −2.341
[1]; accession Q14289-1, experiment wp160, 8 hr, direction of change down
  logFC PTK2B: −2.599
[1]; accession Q14289, experiment wp152, direction of change down
  logFC PTK2B: −2.998
[3]; experiment wp152
  logFC FASTKD3: −0.3418

## CC(C)(C)c1nc(-c2cccc(NS(=O)(=O)c3c(F)cccc3F)c2F)c(-c2ccnc(NCCOCCNC(=O)CCOCCOCCNc3cccc4c3C(=O)N(C3CCC(=O)NC3=O)C4=O)n2)s1 (centres unmarked) [DD.03.106]
[5]; experiment wp147, 4 uM
  logFC of CSK: −0.5149
  logFC CSK: −0.5149
[3]; experiment wp147, 4 uM
  logFC FASTKD3: −0.8259
[2]; experiment wp147, 4 uM
  logFC TBRG4: −0.7514

## Cn1c(=O)c(-c2c(Cl)cccc2Cl)cc2cnc(Nc3ccc(OCCNC(=O)CCCCCCNC(=O)COc4cccc5c4C(=O)N(C4CCC(=O)NC4=O)C5=O)cc3)nc21 (centres unmarked) [SB1.G.192.1]
[5]; experiment wp071
  logFC of CSK: −2.271
  logFC CSK: −2.271
[5]; experiment wp081
  logFC of CSK: −1.966
  logFC CSK: −1.966
[5]; experiment wp131
  logFC of CSK: −1.816
  logFC CSK: −1.816
[2]; experiment wp081
  logFC TBRG4: −0.3452

## CN(C)C(=O)c1cc2cnc(Nc3ccc(N4CCN(CCCCNC(=O)COc5cccc6c5C(=O)N(C5CCC(=O)NC5=O)C6=O)CC4)cn3)nc2n1C1CCCC1 (centres unmarked) [BSJ.04.132]
[3]; experiment wp084
  logFC FASTKD3: −0.5428
[2]; experiment wp084
  logFC TBRG4: −0.6395

## CC(C)(C)c1nc(-c2cccc(NS(=O)(=O)c3c(F)cccc3F)c2F)c(-c2ccnc(NCCOCCNC(=O)CCOCCOCCNc3cccc4c3CN(C3CCC(=O)NC3=O)C4=O)n2)s1 (centres unmarked) [DD.03.107]
[3]; experiment wp147, 1 uM
  logFC FASTKD3: −0.6939
[3]; experiment wp147, 2 uM
  logFC FASTKD3: −0.6931
[3]; experiment wp147, 4 uM
  logFC FASTKD3: −1.191
[2]; experiment wp147, 1 uM
  logFC TBRG4: −0.6245
[2]; experiment wp147, 2 uM
  logFC TBRG4: −0.6284
[2]; experiment wp147, 4 uM
  logFC TBRG4: −1.105
